Assay results: patent US7582645B2, “Pyrimidine derivatives for treatment of hyperproliferative disorders” (Bayer Pharmaceuticals Corporation, priority 2003, dated 2009)

These molecules were tested on HCT116 cells (assay: HCT116 cytotoxic activity assay (Alamar Blue, 72 h)). Details: Homo sapiens, HCT-116, 72 h compound exposure, greater than 500 nM but less than or equal to 2 μM.
Assay type: cell-based
Method: Representative compounds of this invention were tested for cytotoxicity using the above-described assay procedure with the following results: […]

Q: For `CC(=O)Nc1ccc(-c2cc(Nc3ccc(Oc4ccnc(C)c4)cc3)nc(N)n2)cc1` [Example 308, N-{4-[2-amino-6-({4-[(2-methylpyridin-4-yl)oxy]phenyl}amino)pyrimidin-4-yl]phenyl} acetamide], which IC50 is on record?
A: The IC50 was 0.5 to 2 µM.

Q: `Cc1cc(Oc2ccc(Nc3cc(-c4ccccc4OC(F)(F)F)nc(N)n3)cc2)ccn1` [Example 309, N4-{4-[(2-methylpyridin-4-yl)oxy]phenyl}-6-[2-(trifluoromethoxy)phenyl]pyrimidine-2,4-diamine] was tested. Which IC50 did it give?
A: Its IC50 is 0.5 to 2 µM.

Q: How did the IC50 turn out when `COc1ccc(-c2cc(Nc3ccc(Oc4ccnc(C)c4)cc3)nc(N)n2)cc1OC` [Example 319, 6-(3,4-dimethoxyphenyl)-N4*-{4-[(2-methylpyridin-4-yl)oxy]phenyl} pyrimidine-2,4-diamine] was run?
A: The IC50 was 0.5 to 2 µM.

Q: How did the IC50 turn out when `Cc1cc(Oc2ccc(Nc3cc(-c4ccccc4N)nc(N)n3)cc2)ccn1` [Example 322, 6-(2-aminophenyl)-N4*-{4-[(2-methylpyridin-4-yl)oxy]phenyl} pyrimidine-2,4-diamine] was run?
A: Its IC50 is 0.5 to 2 µM.

Q: How did the IC50 turn out when `Cc1cc(Oc2ccc(Nc3cc(-c4cccc(OC(C)C)c4)nc(N)n3)cc2)ccn1` [Example 324, 6-(3-isopropoxyphenyl)-N4*-{4-[(2-methylpyridin-4-yl)oxy]phenyl} pyrimidine-2,4-diamine] was run?
A: Its IC50 is 0.5 to 2 µM.

Q: `Cc1cc(Oc2ccc(Nc3cc(-c4cccc(OC(F)(F)F)c4)nc(N)n3)cc2)ccn1` [Example 325, N4*-{4-[(2-methylpyridin-4-yl)oxy]phenyl}-6-[3-(trifluoromethoxy)phenyl]pyrimidine-2,4-diamine] was tested. Which IC50 did it give?
A: The IC50 was 0.5 to 2 µM.

Same assay, conditions: Homo sapiens, HCT-116, 72 h compound exposure, greater than 2 μM

Q: With `Cc1cc(Oc2ccc(Nc3cc(-c4cccc(C(F)(F)F)c4)nc(N)n3)cc2)ccn1` [Example 314, N4*-{4-[(2-methylpyridin-4-yl)oxy]phenyl}-6-[3-(trifluoromethyl)phenyl] pyrimidine-2,4-diamine] as the molecule, how does the IC50 read?
A: Its IC50 is greater than 2 µM.

Same assay, conditions: Homo sapiens, HCT-116, 72 h compound exposure, less than or equal to 500 nM

Q: Which IC50 does the source give for `Cc1cc(Oc2ccc(Nc3cc(-c4ccc(O)cc4)nc(N)n3)cc2)ccn1` [Example 310, 4-[2-amino-6-({4-[(2-methylpyridin-4-yl)oxy]phenyl}amino)pyrimidin-4-yl]phenol] here?
A: Its IC50 is no more than 0.5 µM.

Q: With `COc1ccc(-c2cc(Nc3ccc(Oc4ccnc(C)c4)cc3)nc(N)n2)cn1` [Example 312, 6-(6-methoxypyridin-3-yl)-N4*-{4-[(2-methylpyridin-4-yl)oxy]phenyl} pyrimidine-2,4-diamine] as the molecule, how does the IC50 read?
A: The IC50 was no more than 0.5 µM.

Q: `Cc1cc(Oc2ccc(Nc3cc(-c4ccc(N)cc4)nc(N)n3)cc2)ccn1` [Example 313, 6-(4-aminophenyl)-N4*-{4-[(2-methylpyridin-4-yl)oxy]phenyl} pyrimidine-2,4-diamine] was tested. Which IC50 did it give?
A: The IC50 was no more than 0.5 µM.

Q: Which IC50 does the source give for `Cc1cc(Oc2ccc(Nc3cc(-c4cccc(F)c4)nc(N)n3)cc2)ccn1` [Example 315, 6-(3-fluorophenyl)-N4*-{4-[(2-methylpyridin-4-yl)oxy]phenyl} pyrimidine-2,4-diamine] here?
A: The IC50 was no more than 0.5 µM.

Q: `COc1cccc(-c2cc(Nc3ccc(Oc4ccnc(C)c4)cc3)nc(N)n2)c1` [Example 316, 6-(3-methoxyphenyl)-N4*-{4-[(2-methylpyridin-4-yl)oxy]phenyl} pyrimidine-2,4-diamine] was tested. Which IC50 did it give?
A: Its IC50 is no more than 0.5 µM.

Q: How did the IC50 turn out when `CCc1ccc(-c2cc(Nc3ccc(Oc4ccnc(C)c4)cc3)nc(N)n2)cc1` [Example 317, 6-(4-ethylphenyl)-N4*-{4-[(2-methylpyridin-4-yl)oxy]phenyl} pyrimidine-2,4-diamine] was run?
A: Its IC50 is no more than 0.5 µM.

Q: With `Cc1cc(Oc2ccc(Nc3cc(-c4ccc(N(C)C)cc4)nc(N)n3)cc2)ccn1` [Example 318, 6-[4-(dimethylamino)phenyl]-N4*- {4-[(2-methylpyridin-4-yl)oxy]phenyl}pyrimidine-2,4-diamine] as the molecule, how does the IC50 read?
A: The IC50 was no more than 0.5 µM.

Q: With `Cc1cc(Oc2ccc(Nc3cc(-c4cccc(N)c4)nc(N)n3)cc2)ccn1` [Example 320, 6-(3-aminophenyl)-N4*-{4-[(2-methylpyridin-4-yl)oxy]phenyl} pyrimidine-2,4-diamine] as the molecule, how does the IC50 read?
A: The IC50 was no more than 0.5 µM.

Q: Which IC50 does the source give for `Cc1cc(Oc2ccc(Nc3cc(-c4ccoc4)nc(N)n3)cc2)ccn1` [Example 321, 6-(3-furyl)-N4*-{4-[(2-methylpyridin-4-yl)oxy]phenyl} pyrimidine-2,4-diamine] here?
A: The IC50 was no more than 0.5 µM.

Q: For `Cc1cc(Oc2ccc(Nc3cc(-c4ccc(C)c(N)c4)nc(N)n3)cc2)ccn1` [Example 323, 6-(3-amino-4-methylphenyl)-N4*-{4-[(2-methylpyridin-4-yl)oxy]phenyl} pyrimidine-2,4-diamine], which IC50 is on record?
A: Its IC50 is no more than 0.5 µM.

Q: Which IC50 does the source give for `Nc1nc(Nc2ccc(Oc3ccnc(Cl)c3)cc2)cc(-c2ccc(OS(N)(=O)=O)cc2)n1` [Example 332, 4-[2-amino-6-({4-[(2-chloropyridin-4-yl)oxy]phenyl}amino)pyrimidin-4-yl]phenyl sulfamate] here?
A: Its IC50 is no more than 0.5 µM.
